According to ChEMBL document CHEMBL1909046, “DrugMatrix in vitro pharmacology data”:

Experiments:
[1] = DRUGMATRIX: Sodium/nucleoside co-transporter radioligand binding (ligand: nitrobenzylthioinosine); type: cell membranes, Cavia porcellus, Dunkin-Hartley, Cerebral cortex, Membrane; conditions: Not Active = under 50% inhibition at 10 µM
[2] = target: T1, C-C chemokine receptor type 4 (Homo sapiens, UniProt P51679); type: cell membranes, Membrane; conditions: chem-1; also: in other assays of this panel Not Active means under 50% inhibition at 10 µM
T1 sequence (P51679 whole entry): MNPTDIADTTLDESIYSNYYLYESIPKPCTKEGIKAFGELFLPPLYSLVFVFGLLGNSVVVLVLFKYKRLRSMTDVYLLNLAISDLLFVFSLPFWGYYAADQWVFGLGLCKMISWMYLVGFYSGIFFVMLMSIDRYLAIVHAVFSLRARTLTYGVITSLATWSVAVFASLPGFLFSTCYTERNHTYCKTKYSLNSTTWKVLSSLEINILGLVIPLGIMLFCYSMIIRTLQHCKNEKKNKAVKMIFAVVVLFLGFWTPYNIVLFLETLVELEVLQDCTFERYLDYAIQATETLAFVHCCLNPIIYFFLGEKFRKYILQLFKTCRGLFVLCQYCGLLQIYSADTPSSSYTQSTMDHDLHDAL

[3] = target: Insulin receptor (Rattus norvegicus, UniProt P15127); type: cell membranes, Wistar, Liver, Membrane; also: in other assays of this panel Not Active means under 50% inhibition at 10 µM
[4] = target: Platelet-activating factor receptor (Homo sapiens, UniProt P25105); type: tissue-based; also: in other assays of this panel Not Active means under 50% inhibition at 10 µM
[5] = DRUGMATRIX: Platelet-Derived Growth Factor (PDGF) radioligand binding (ligand: [125I] PDGF); type: cell-based; conditions: nih3t3; Not Active = under 50% inhibition at 10 µM
[6] = DRUGMATRIX: Potassium Channel [KATP] radioligand binding (ligand: [3H] Glyburide); type: cell membranes, Membrane; conditions: hit-t15; Not Active = under 50% inhibition at 10 µM
[7] = target: Matrix metalloproteinase-9 (Homo sapiens, UniProt P14780); experiment: biochemical; type: cell-based;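 also: inhibition of isolated MMP-9 enzyme activity toward a synthetic peptide substrate, from the DrugMatrix protease screening panel; in other assays of this panel Not Active means under 50% inhibition at 10 µM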
[8] = target: Cytochrome P450 2E1 (Homo sapiens, UniProt P05181); conditions: bti-tn-5b1-4; also: in other assays of this panel Not Active means under 50% inhibition at 10 µM
[9] = target: Cytochrome P450 3A4 (Homo sapiens, UniProt P08684); conditions: bti-tn-5b1-4; also: in other assays of this panel Not Active means under 50% inhibition at 10 µM
Cytochrome P450 3A4, sequence (P08684 whole entry): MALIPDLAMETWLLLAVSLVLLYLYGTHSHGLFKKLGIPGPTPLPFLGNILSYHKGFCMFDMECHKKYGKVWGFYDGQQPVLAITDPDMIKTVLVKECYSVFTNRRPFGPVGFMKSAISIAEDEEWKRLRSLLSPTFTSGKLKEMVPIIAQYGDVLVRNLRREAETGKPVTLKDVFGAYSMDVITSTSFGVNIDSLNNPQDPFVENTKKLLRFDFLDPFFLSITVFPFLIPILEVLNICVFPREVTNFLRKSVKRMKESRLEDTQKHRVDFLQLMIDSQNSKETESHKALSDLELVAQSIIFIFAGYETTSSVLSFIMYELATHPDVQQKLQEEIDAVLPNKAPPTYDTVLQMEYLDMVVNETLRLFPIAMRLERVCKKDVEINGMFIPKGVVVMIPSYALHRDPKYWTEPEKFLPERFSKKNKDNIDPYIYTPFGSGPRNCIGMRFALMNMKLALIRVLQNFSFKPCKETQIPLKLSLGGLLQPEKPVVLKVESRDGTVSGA

Insulin receptor, sequence (P15127 27-759 limits assumed): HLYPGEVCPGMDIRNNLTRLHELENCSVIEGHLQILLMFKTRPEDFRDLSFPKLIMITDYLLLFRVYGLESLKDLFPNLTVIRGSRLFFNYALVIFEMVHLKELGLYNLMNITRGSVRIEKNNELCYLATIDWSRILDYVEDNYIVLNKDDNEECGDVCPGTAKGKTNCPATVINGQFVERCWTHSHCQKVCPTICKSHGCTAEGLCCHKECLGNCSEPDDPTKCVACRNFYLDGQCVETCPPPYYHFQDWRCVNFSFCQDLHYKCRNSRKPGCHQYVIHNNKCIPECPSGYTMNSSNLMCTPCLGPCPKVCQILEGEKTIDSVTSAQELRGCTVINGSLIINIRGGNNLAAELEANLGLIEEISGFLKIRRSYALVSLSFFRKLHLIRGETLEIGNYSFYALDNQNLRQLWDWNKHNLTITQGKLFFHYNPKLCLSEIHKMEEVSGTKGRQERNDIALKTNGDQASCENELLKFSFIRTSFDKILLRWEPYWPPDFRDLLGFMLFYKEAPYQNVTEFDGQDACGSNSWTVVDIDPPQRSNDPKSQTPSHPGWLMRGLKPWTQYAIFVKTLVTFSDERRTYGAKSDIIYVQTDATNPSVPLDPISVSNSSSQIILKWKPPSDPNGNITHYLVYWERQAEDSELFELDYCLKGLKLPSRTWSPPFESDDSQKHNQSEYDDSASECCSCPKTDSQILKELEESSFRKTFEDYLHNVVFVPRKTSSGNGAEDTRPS
Insulin receptor, sequence (P15127 764-1383 limits assumed): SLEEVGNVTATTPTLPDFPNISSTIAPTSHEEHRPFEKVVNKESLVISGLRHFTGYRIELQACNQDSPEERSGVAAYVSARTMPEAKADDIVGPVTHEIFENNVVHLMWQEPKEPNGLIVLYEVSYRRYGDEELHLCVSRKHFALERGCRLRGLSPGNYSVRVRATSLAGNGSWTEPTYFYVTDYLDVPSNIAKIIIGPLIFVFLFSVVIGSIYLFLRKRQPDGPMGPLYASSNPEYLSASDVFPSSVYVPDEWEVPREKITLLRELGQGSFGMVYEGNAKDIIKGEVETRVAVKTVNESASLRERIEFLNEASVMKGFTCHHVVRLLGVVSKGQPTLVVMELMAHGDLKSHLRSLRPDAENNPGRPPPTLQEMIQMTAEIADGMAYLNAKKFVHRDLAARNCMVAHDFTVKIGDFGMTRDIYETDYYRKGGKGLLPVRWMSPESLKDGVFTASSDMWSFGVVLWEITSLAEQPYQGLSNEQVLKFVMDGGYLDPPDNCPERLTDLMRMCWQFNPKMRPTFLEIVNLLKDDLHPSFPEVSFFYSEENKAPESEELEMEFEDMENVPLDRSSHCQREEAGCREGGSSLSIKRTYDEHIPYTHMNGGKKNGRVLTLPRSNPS
Matrix metalloproteinase-9, sequence (P14780 whole entry): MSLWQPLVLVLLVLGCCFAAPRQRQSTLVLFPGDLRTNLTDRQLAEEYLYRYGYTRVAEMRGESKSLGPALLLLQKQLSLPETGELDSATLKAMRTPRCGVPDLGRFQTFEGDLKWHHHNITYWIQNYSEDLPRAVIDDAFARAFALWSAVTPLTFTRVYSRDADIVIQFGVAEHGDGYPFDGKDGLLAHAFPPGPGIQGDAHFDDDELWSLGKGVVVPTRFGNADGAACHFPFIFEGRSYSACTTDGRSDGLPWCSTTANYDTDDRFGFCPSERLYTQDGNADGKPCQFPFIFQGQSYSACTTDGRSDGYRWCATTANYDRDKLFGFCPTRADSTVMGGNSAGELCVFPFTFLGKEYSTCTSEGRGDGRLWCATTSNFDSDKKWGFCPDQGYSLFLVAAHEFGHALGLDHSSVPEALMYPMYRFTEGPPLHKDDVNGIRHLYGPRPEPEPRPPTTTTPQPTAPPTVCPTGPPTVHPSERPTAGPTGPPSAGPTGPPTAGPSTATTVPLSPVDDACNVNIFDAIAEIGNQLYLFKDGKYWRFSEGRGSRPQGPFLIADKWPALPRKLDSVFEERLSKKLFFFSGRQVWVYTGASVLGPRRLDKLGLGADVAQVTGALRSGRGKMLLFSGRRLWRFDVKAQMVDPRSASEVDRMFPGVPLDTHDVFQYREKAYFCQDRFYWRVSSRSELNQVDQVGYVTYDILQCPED
Cytochrome P450 2E1, sequence (P05181 whole entry): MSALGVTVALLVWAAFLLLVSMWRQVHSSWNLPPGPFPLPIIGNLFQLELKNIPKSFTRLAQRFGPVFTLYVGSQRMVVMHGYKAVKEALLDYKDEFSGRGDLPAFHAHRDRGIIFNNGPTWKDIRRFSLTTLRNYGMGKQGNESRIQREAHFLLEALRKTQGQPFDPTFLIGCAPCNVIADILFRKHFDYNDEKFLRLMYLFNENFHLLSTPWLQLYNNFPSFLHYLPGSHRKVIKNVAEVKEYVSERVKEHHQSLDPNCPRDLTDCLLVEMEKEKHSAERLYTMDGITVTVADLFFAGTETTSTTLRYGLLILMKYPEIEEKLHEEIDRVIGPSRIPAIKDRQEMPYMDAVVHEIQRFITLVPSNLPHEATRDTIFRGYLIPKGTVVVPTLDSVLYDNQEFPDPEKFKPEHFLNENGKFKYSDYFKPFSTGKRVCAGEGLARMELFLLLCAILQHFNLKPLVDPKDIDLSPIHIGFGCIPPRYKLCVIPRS
Platelet-activating factor receptor, sequence (P25105 whole entry): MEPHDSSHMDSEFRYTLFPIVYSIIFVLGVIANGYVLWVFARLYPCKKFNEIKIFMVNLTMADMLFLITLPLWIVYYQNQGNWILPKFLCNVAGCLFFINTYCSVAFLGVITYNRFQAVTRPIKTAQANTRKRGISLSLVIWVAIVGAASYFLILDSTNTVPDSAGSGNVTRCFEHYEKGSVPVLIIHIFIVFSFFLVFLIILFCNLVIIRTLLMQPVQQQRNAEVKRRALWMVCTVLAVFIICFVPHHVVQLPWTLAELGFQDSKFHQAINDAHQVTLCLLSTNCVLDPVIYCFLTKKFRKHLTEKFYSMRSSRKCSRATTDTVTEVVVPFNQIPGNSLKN

COc1ccc2[nH]cc(CCNC(C)=O)c2c1 [MELATONIN]
Not Active: IC50 [1] | Ki [1] | IC50 [2] | IC50 [3] | IC50 [4] | IC50 [5] | Ki [5] | IC50 [6] | Ki [6] | IC50 [7] | IC50 [8] | Ki [8] | IC50 [9] | Ki [9]

O=C/C=C/c1ccccc1
Not Active: IC50 [1] | Ki [1] | IC50 [2] | IC50 [3] | IC50 [4] | IC50 [5] | Ki [5] | IC50 [6] | Ki [6] | IC50 [7] | IC50 [8] | Ki [8] | IC50 [9] | Ki [9]

CN(C)CC[C@@H](c1ccc(Cl)cc1)c1ccccn1 [DEXCHLORPHENIRAMINE]
Not Active: IC50 [1] | Ki [1] | IC50 [2] | IC50 [3] | IC50 [4] | IC50 [5] | Ki [5] | IC50 [6] | Ki [6] | IC50 [7] | IC50 [8] | Ki [8] | IC50 [9] | Ki [9]

COc1ccc2cc3[n+](cc2c1OC)CCc1cc2c(cc1-3)OCO2.[Cl-] [BERBERINE CHLORIDE]
Not Active: IC50 [1] | Ki [1] | IC50 [2] | IC50 [3] | IC50 [4] | IC50 [5] | Ki [5] | IC50 [6] | Ki [6] | IC50 [7] | IC50 [8] | Ki [8] | IC50 [9] | Ki [9]

OC(CCCN1CCCCC1)(c1ccccc1)c1ccccc1 [DIPHENIDOL]
Not Active: IC50 [1] | Ki [1] | IC50 [2] | IC50 [3] | IC50 [4] | IC50 [5] | Ki [5] | IC50 [6] | Ki [6] | IC50 [7] | IC50 [8] | Ki [8] | IC50 [9] | Ki [9]

CC(=O)O[C@H]1C(=O)[C@@]2(C)[C@H]([C@H](OC(=O)c3ccccc3)[C@]3(O)C[C@H](OC(=O)[C@H](O)[C@@H](NC(=O)c4ccccc4)c4ccccc4)C(C)=C1C3(C)C)[C@]1(OC(C)=O)CO[C@@H]1C[C@@H]2O [PACLITAXEL]
Not Active: IC50 [1] | Ki [1] | IC50 [2] | IC50 [3] | IC50 [4] | IC50 [5] | Ki [5] | IC50 [6] | Ki [6] | IC50 [7] | IC50 [8] | Ki [8] | IC50 [9] | Ki [9]
